Laboratory results published in US4895937A, “5-ioso-2-pyrimidinone nucleoside” (The Research Foundation of State University of New York, priority 1988, dated 1990).
Values joined by “and” are separate entries in the source; they are usually repeats but may differ in a detail not shown here. Equal entries are not always repeated. “Also recorded” adds a separate entry of the source. Where two headings read alike, the source gives them in different places.

Tests used:
HSV-2 (333 strain) = assay: In vivo test of IPdR in mice implanted with HSV-2 (333 strain), survival (Example 4); parameters: species or system Swiss Webster Balb/C mice; conditions: 100 mg/kg twice daily for 2.5 days; for DAYS--SURVIVAL: deaths: 5 mice; for long term survivors (>30 days): out of 5 mice
Experimental: The substituted pyrimidinone of Example 3, 1-(2-deoxy)-β-D-ribofuranosyl)-5-iodo-2-pyrimidinone (IPdR) was tested in vivo. Three groups of five Swiss Webster Balb/C mice weighing from 19 to 23 grams were implanted with HSV-2 (333 strain) with a virus load of 5×10^5 plaque forming units.
Drug administration began one day following virus implant. The IPdR was administered subcutaneously to a first group of mice and intraperitoneally to a second group of mice. The third group of mice which performed as controls were not given any IPdR. The dosage of IPdR was at the rate of 100 mg/kg twice daily for 2.5 days for a total of 5 doses.

HSV-2 (strain 333) [1] = assay: Antiviral activity, HSV-2 plaque reduction (Example 8 Part A); format: cell-based
Experimental: The effects of 1-(2-Deoxy-β-D-ribofuranosyl)-5-iodo-2-pyrimidinone (IPdR) of Example 3 were compared with 1-(2-Deoxy-β-D-ribofuranosyl)-5-fluoro-2-pyrimidinone (FPdR) on HSV-2 (strain 333) in […]. Twenty four well plates (sterile) were plated with 10^6 Vero cells/well the day before infecting. 250 PFU of HSV-2 were used in each well. The test compounds, IPdR and FPdR, were added at zero times of post infection and the cultures incubated at 37° C. for 48 hours. At the end of the incubation period the media was removed from Vero cells. Plates were strained with 0.8% crystal violet in 50% ethanol for 15 minutes. The plaque was counted.

[2] = Cytotoxicity / cell proliferation in KB cells (Example 8 Part B); format: cell-based, human; conditions: human, kb cells, 72 hour exposure
Experimental: (§1) To compare the toxicity of FPdR and IPdR human nasopharyngeal carcinoma KB cells obtained from the American Type Culture Collection were maintained as a monolayer in RPMI 1640 supplemented with 5% fetal bovine serum, 10 mM HEPES buffer (pH 7.4) and karamycin (100 μg/ml). Cells were maintained at 37° C. in a humidified atmosphere of 5% CO2 in air. Cell numbers were determined with an electronic particle counter (Particle Data, Inc., Elmhurst, Ill.).
(§2) For determination of drug effect on cell proliferation, cells were harvested from rapidly proliferting cultures by treatment with pancreation. Cell number was determined and plated in 24 well (6 mm well diameter) plates at a concentratin of 5×10^3 cells/ml. Drug exposures were initiated by a complete change of medium after overnight incubation. Following a 72 hour drug exposure […]. of thiazolyl blue was added and incubated for a further 4 hour period. The media from the plates was aspirated completely and […] DMSO was added to each well. The plates were placed on a shaker for 5 minutes and the blue solution transferred to 96 well plates and read at 540 nm with a scanning multiwell spectrophotometer (Biotek Instruments, Inc. Burlington, Vt.).

[3] = tested on: human nasopharyngeal carcinoma KB cells; assay: as above; format: cell-based
Experimental: as §1, §2

HSV-2 (Strain 333) [4] = assay: Antiviral activity in HSV-2 infected mice by various routes (Example 9); format: in vivo, Swiss-Webster female mice; conditions: for % ILS: excluding 45 day survivors
Experimental: The drugs were administered once a day for five days or twice daily (12 hour intervals) for 2.5 days beginning 24 hours postinfection. Mean body weight determinations of drug treated and control animals were made during the treatment period as an indicator of sublethal toxicity. Deaths were recorded through day 45.

HSV-1 (KOS) = assay: Antiherpes activity, HSV-1 (KOS) (Example 10); format: cell-based; conditions: Human alphaherpesvirus 1; 100 μM; read-out: plaque-forming units as % of control
Experimental: (§3) IPdR and 5-bromo-2-pyrimidinone-2-deoxyribonucleoside (BrPdR) were tested for antiherpes activity according to procedures described by Cheng, Y.-C., et al. Antimicrob. Agents Chemother (1976) 10, 119.

HSV-1 (CLl0l) = assay: Antiherpes activity, HSV-1 (CLl0l) (Example 10); format: cell-based; conditions: Human alphaherpesvirus 1; 100 μM; read-out: plaque-forming units as % of control
Experimental: as §3

HSV-2 (333) = assay: Antiherpes activity, HSV-2 (333) (Example 10); format: cell-based; conditions: Human alphaherpesvirus 2; 100 μM; read-out: plaque-forming units as % of control
Experimental: as §3

HSV-2 (CEU-G) = assay: Antiherpes activity, HSV-2 (CEU-G) (Example 10); format: cell-based; conditions: Human alphaherpesvirus 2, read-out: plaque-forming units as % of control
Experimental: as §3

[5] = tested on: ACG (S1), acyclovir resistant strain of HSV1; assay: Antiherpes activity, acyclovir resistant strain of HSV1 (S1) (Example 10); format: cell-based, HSV-1
Experimental: as §3

[6] = tested on: ACG (Tr7), acyclovir resistant strain of HSV1; assay: Antiherpes activity, acyclovir resistant strain of HSV1 (Tr7) (Example 10); format: cell-based, HSV-1; conditions: Human alphaherpesvirus 1, read-out: plaque-forming units as % of control
Experimental: as §3

[7] = tested on: HSV-1 and HSV-2 strains (herpes virus group); assay: Antiherpes activity, overall statement; format: cell-based
Experimental: as §3

[8] = tested on: virus-specific thymadine kinase; assay: Binding to the virus-specific thymidine kinase (Example 10); conditions: compared with BrPdR
[9] = tested on: acyclovir (ACG) and BVdU resistant strains of HSV-1; assay: Antiherpes activity against acyclovir (ACG) and BVdU resistant strains of HSV-1, overall statement; format: cell-based
Experimental: as §3

[10] = 100 mg/kg oral, 2 × 21/2, 72 hours after implant
[11] = 100 mg/kg oral, 2 × 21/2, innoculation dose 1 × 10^6 PFU

## O=c1ncc(I)cn1[C@H]1C[C@H](O)[C@@H](CO)O1 [IPdR, 1-(2-Deoxy-β-D-Ribofuranosyl)-5-iodo-2-pyrimidinone]
HSV-2 (333 strain); intraperitoneal
  DAYS--SURVIVAL: deaths: 1 died on day 17
  long term survivors (>30 days): 4
HSV-2 (333 strain); subcutaneous, 100 mg/kg
  DAYS--SURVIVAL: deaths: 1 died on day 11 and 2 died on day 13
HSV-2 (333 strain); subcutaneous
  long term survivors (>30 days): 2
HSV-2 (333 strain); subcutaneous, control 9.4 days average
  DAYS--SURVIVAL: days average: 12 days
HSV-2 (strain 333) [1]
  antiviral activity, comparison of IPdR and FPdR: comparable in antiviral activity
HSV-2 (strain 333) [1]; Human alphaherpesvirus 2, Vero, 100 μM, 48 hours
  inhibition at 100 µM: 51.1%
[2]; 100 μm, read-out: % Growth
  activity at 72 h, 100 µM: 75%
[2]; 200 μm, read-out: % Growth
  activity at 72 h, 200 µM: 80%
[2]; cytotoxicity, read-out: ID50
  IC50 at 72 h: > 200 µM
[3]
  toxicity against the host cells: low level of toxicity for the host cell
HSV-2 (Strain 333) [4]; 10 mg/kg IP, 2 × 21/2
  Survivors/Total: 0/5
  percent survival: 0%
  % ILS: 133%
HSV-2 (Strain 333) [4]; 10 mg/kg IP, 2 × 21/2, control 9.3 ± 1.1
  Mean Survival Time (days), of the mice that died: 12.8 ± 3.6 days
HSV-2 (Strain 333) [4]; 10 mg/kg oral, 2 × 21/2
  Survivors/Total: 0/5
  percent survival: 0%
  % ILS: 123%
HSV-2 (Strain 333) [4]; 10 mg/kg oral, 2 × 21/2, control 10.6 ± 2.1
  Mean Survival Time (days), of the mice that died: 12.8 ± 3.6 days
HSV-2 (Strain 333) [4]; 40 mg/kg IP, 2 × 21/2
  Survivors/Total: 2/5
  percent survival: 40%
  % ILS: 108%
HSV-2 (Strain 333) [4]; 40 mg/kg IP, 2 × 21/2, control 9.3 ± 1.1
  Mean Survival Time (days), of the mice that died: 10.0 ± 1.0 days
HSV-2 (Strain 333) [4]; 40 mg/kg oral, 2 × 21/2
  Survivors/Total: 2/5
  percent survival: 40%
  % ILS: 94%
HSV-2 (Strain 333) [4]; 40 mg/kg oral, 2 × 21/2, control 10.6 ± 2.1
  Mean Survival Time: 10.0 ± 1.0 days
HSV-2 (Strain 333) [4]; 100 mg/kg IP, 1 × 5
  Survivors/Total: 7/10
  percent survival: 70%
  % ILS: 129%
HSV-2 (Strain 333) [4]; 100 mg/kg IP, 1 × 5, control 9.6 ± 1.1
  Mean Survival Time (days), of the mice that died: 12.0 ± 4.4 days
HSV-2 (Strain 333) [4]; 100 mg/kg IP, 2 × 21/2
  Survivors/Total: 6/10
  percent survival: 60%
  % ILS: 135%
HSV-2 (Strain 333) [4]; 100 mg/kg IP, 2 × 21/2, control 9.3 ± 1.1
  Mean Survival Time (days), of the mice that died: 12.5 ± 1.3 days
HSV-2 (Strain 333) [4]; 100 mg/kg SC, 1 × 5
  Survivors/Total: 2/5
  percent survival: 40%
  % ILS: 131%
HSV-2 (Strain 333) [4]; 100 mg/kg SC, 1 × 5, control 9.4 ± 1.1
  Mean Survival Time (days), of the mice that died: 12.3 ± 1.2 days
HSV-2 (Strain 333) [4]; 100 mg/kg oral, 2 × 21/2
  Survivors/Total: 20/20
  percent survival: 100%
HSV-2 (Strain 333) [4]; [10]
  Survivors/Total: 5/5
  percent survival: 100%
HSV-2 (Strain 333) [4]; 100 mg/kg oral, 2 × 21/2, control 9.8 ± 1.3
  Mean Survival Time: > 45 days
HSV-2 (Strain 333) [4]; 100 mg/kg oral, 2 × 21/2, control 10.6 ± 2.1
  Mean Survival Time: > 45 days
HSV-2 (Strain 333) [4]; [11]
  Survivors/Total: 4/5
  percent survival: 80%
  % ILS: 140%
HSV-2 (Strain 333) [4]; 100 mg/kg oral, 2 × 21/2, innoculation dose 1 × 10^6 PFU, control 10.0 ± 1.2
  Mean Survival Time (days), of the mice that died: 14.0 days
HSV-2 (Strain 333) [4]; oral, intraperitoneal or subcutaneous
  toxicity to the host: without significant toxicity to the host
HSV-2 (Strain 333) [4]; summary of Table 5
  activity against HSV-2 in vivo / life span of the host: active against HSV-2 in vivo; also recorded: can significantly increase
HSV-1 (KOS)
  activity at 100 µM: 0.27%
HSV-1 (CLl0l)
  activity at 100 µM: 1.6%
HSV-2 (333)
  activity at 100 µM: 2.8%
HSV-2 (CEU-G)
  activity at 100 µM: 9.3%
[5]; Human alphaherpesvirus 1, read-out: plaque-forming units as % of control
  activity at 100 µM: 22%
[5]; S1 compared with Tr7
  cross resistance of the more highly ACG-resistant strain: more cross resistance
[6]
  activity at 100 µM: 2.6%
[7]
  antiherpes / anti-viral activity (words): significant antiherpes activities; also recorded: showing the higher activity
[7]; listed as 1-(2-Deoxy-β-D-ribofuranosyl)-5-(iodo)-2-pyrimidinone
  antiherpes / anti-viral activity (words): high level of anti-viral activity
[8]
  binding to the virus-specific thymadine kinase: stronger binding to the virus-specific thymadine kinase
[9]
  activity against acyclovir (ACG) and BVdU resistant strains: somewhat reduced but still significant activity
